What all share (type): ADME, organism-based
Data set [1] is described as follows: AUClast in Sprague-Dawley rat at 1 mg/kg, iv measured by LC-MS/MS analysis. Also on record: dose 1 mg/kg. The following applies: in vivo.
Data set [2] is described as follows: Bioavailability in Sprague-Dawley rat at 10 mg/kg, ig measured by LC-MS/MS analysis. The settings on record: in vivo, po.
Data set [3] is described as follows: AUClast in Sprague-Dawley rat at 10 mg/kg, ig measured by LC-MS/MS analysis. Details: dose 10 mg/kg. The following applies: in vivo, po.
Data set [4] in a line: Mean residence time in Sprague-Dawley rat at 10 mg/kg, ig measured by LC-MS/MS analysis. The settings on record: in vivo, po.
Data set [5] in a line: Tmax in Sprague-Dawley rat at 10 mg/kg, ig measured by LC-MS/MS analysis. The settings on record: in vivo, po.
The nature of data set [6]: Tmax in Sprague-Dawley rat at 1 mg/kg, iv measured by LC-MS/MS analysis. The settings on record: in vivo.
Data set [7] can be described thus: Mean residence time in Sprague-Dawley rat at 1 mg/kg, iv measured by LC-MS/MS analysis. The settings on record: in vivo.

Molecules are shown by their SMILES.

Two molecules from ChEMBL document CHEMBL4819132, “Discovery of novel tripeptide propylene oxide proteasome inhibitors for the treatment of multiple myeloma” (Bioorg Med Chem, 2021) can be followed below.

Take `COC[C@H](NC(=O)c1cc(C)on1)C(=O)NCC(=O)N[C@@H](Cc1ccccc1)C(=O)[C@@]1(C)CO1`: the AUClast in data set [1] came out at 72 ng·mL·h; in data set [3] it was 42 ng·mL·h. In addition, the bioavailability in data set [2] worked out at 6.3%. The mean residence time MRT was found to be 36.6 min in data set [4] and 8.4 min in data set [7]. For the same molecule, the Tmax worked out at 10.2 min in data set [5] and 4.8 min in data set [6].
On to `COC[C@H](NC(=O)c1cc(C)on1)C(=O)NCC(=O)N[C@@H](CC(C)C)C(=O)[C@@]1(C)CO1`, for which the AUClast worked out at 107 ng·mL·h in data set [1] and 119 ng·mL·h in data set [3]. The bioavailability in data set [2] amounted to 13.5%. Moreover, the MRT turned out to be 51.6 min in data set [4] and 19.8 min in data set [7]. The Tmax came to 13.2 min in data set [5] and 4.8 min in data set [6].

Broadly, the bioavailability is the share of a dose that reaches the circulation, judged against a reference dose that is usually intravenous. Read a low bioavailability as little systemic uptake. What is called MRT is a mean duration of stay, worked out from the concentration-time curve. One may read the Tmax as the time from dosing to the highest level.
